Measured values published in patent US5478726A, “Mycobacterial recombinants and peptides” (priority 1992, dated 1995).

What was measured:
T cell clone A7JM = conditions: A7JM against macrophages pulsed with the antigen; 7 days
T cell clone K8AH = conditions: K8AH against macrophages pulsed with the antigen; 7 days
[1] = tested on: serum from human patients known to be infected with M. tuberculosis; assay type: binding; conditions: Western blot; preliminary studies

CC[C@H](C)[C@H](NC(=O)[C@H](Cc1ccc(O)cc1)NC(=O)[C@@H]1CCCN1C(=O)[C@H](CC(=O)O)NC(=O)[C@H](CCC(=O)O)NC(=O)[C@H](CC(C)C)NC(=O)[C@@H](NC(=O)[C@H](C)N)C(C)C)C(=O)N[C@@H](CC(C)C)C(=O)N[C@@H](CC(C)C)C(=O)N[C@H](C(=O)N[C@@H](CO)C(=O)N[C@@H](CO)C(=O)N[C@@H](CCCCN)C(=O)N[C@H](C(=O)O)C(C)C)C(C)C [Peptide 22, A V L E D P Y I L L V S S K V]
Cytotoxicity (T cell clone A7JM): 82.7 ± 10 percentages

CC[C@H](C)[C@H](NC(=O)[C@@H](NC(=O)[C@H](CCCCN)NC(=O)[C@H](CCC(=O)O)NC(=O)[C@H](CC(C)C)NC(=O)[C@H](CC(C)C)NC(=O)[C@@H]1CCCN1C(=O)[C@H](CC(C)C)NC(=O)[C@@H](N)CC(C)C)C(C)C)C(=O)NCC(=O)N[C@@H](C)C(=O)NCC(=O)N[C@@H](CCCCN)C(=O)N1CCC[C@H]1C(=O)N[C@@H](CC(C)C)C(=O)O [Peptide 24, L L P L L E K V I G A G K P L]
Cytotoxicity (T cell clone K8AH): 86.5 ± 0.6 percentages

purified recombinant 65KD protein: purified recombinant 65KD (540 amino acid residue) protein of M. tuberculosis
Immunoreaction with antisera from infected patients [1]: immunoreacted
